Measurements taken from patent US5468744A (priority 1994, dated 1995).
Read-outs that look alike come from different tables or passages of the source.

Assays:
[1] = in vivo; cited from earlier work
[2] = Tail-flick test, analgesic activity in male CD1 mice (oral, 15 min); type: in vivo; conditions: for ED50: Mus musculus, po, 0.25 h, read-out: ED50 (95% confidence interval), drug alone; for ED50 at 15 min (95% Cl's), Tramadol: tramadol component
Procedure: For each of the ratios of individual drugs used in the drug combinations tested (Table I), stock solutions were prepared that corresponded to twice the dose of each drug having a concentration expressed in mgdrug(s) per 5 mL of distilled water. For example, in the case of the 1:20 tramadol:codeine ratio, 9.1 mg of tramadol hydrochloride (=8.0 mg of tramadol as the base) and 217.1 mg of codeine phosphate (=160.0 mg of codeine as the free base) were each dissolved in separate 5 mL vials of distilled water to form individual stock solutions. Equal volumes of each of the stock solutions were then combined to prepare the final desired drug combination per 10 mL of distilled water. […] Then 10 mL/kg of the stock solution was injected into the mouse. See, Table I. Each ratio was prepared separately in a similar manner and injected in a volume of 10 mL/kg per mouse.
The preparation of different ratios of a tramadol/oxycodone combination is effected by preparing a stock solution having a concentration expressed in mgdrugs per 10 mL of dissolved water. […] Each ratio was prepared separately in a similar manner and injected in a volume of 10 mL/kg per mouse.
Some mice were dosed orally with the compositions as made in Example 1 and as shown in Table 1 and other mice were dosed orally with the compositions as made in Example 2 and as shown in Table II. The dosing volume was 10 mL/kg.
Analgesic activity was assessed employing the tail-flick test as described by F. D'Amour et al., J. Pharmacol. Exp. Ther., 72, 74 (1941). The test involved subjecting the tail of a mouse to a focused heat stimulus and monitoring the response, i.e., "flicking" (removing) of the tail from the source of the stimulus. The reaction time (latency) of the response was first measured without the administration of any drug composition, and repeated fifteen minutes after the administration of compositions of the invention wherein the components of the compositions are in various ratios. Each mouse was only subjected to one pre- and post-administration test.
The analysis of possible superadditivity for the compositions at each fixed ratio was determined as disclosed by R. J. Tallarida et al., Life Sci., 45, 947 (1989). This procedure involved determination of the total amount in the mixture that is required to produce a specified level of effect, such as 50% (ED50mix), and the corresponding total amount that would be expected under simple additivity (ED50add). Where it was established that ED50mix <ED50add for a specific fixed-ratio,then that composition ratio is superadditive. Both the 1quantities ED50mix and ED50add were random variables; ED50mix was estimated from the dose-response curve for a specific fixed-ratio; ED50add was obtained by combining the ED50 estimates for the two drugs under additivity. ED50mix was then compared to ED50add via a t-test. […] The interaction between tramadol and codeine or […] were determined at precise dosage ratios of tramadol hydrochloride and codeine or oxycodone. Multiple (typically 4-6) coded doses of each selected combination were studied for analgesic effectiveness after 15 minutes using an experimental design which permitted the complete randomization of the separate dosage forms tested.
In the Figures, the diagonal line joining the ED50 values of the two drugs given separately represents the simple additivity of a composition effects at different component ratio. The dotted adjacent lines to the diagonal line define the 95% confidence interval. ED50's falling under the curve (between the line and the origin) indicate superadditivity, i.e., unexpected enhancement of effects. The diagonal dashed lines radiating from the origin represent the dose ratios of tramadol hydrochloride to codeine phosphate (FIG. 1) or oxycodone sulfate (FIG. 2) used in mice receiving the combined drug dosages. The bars through the ED50 points for tramadol and codeine or oxycodone compositions represent the 95% confidence intervals of the ED50.

[3] = drug alone, p.o., tail-flick, mice, 15 min

COc1ccc2c3c1O[C@H]1[C@@H](O)C=C[C@H]4[C@@H](C2)N(C)CC[C@@]341 [Codeine only]
side effects [1]: respiratory depression, constipation, tolerance and abuse liability
ED50 [2, 3]: 71.3 mg/kg
Analgesia ([2]; codeine 10 mg/kg p.o., 15 min): 0/10
Analgesia ([2]; codeine 20 mg/kg p.o., 15 min): 1/10
Analgesia ([2]; codeine 40 mg/kg p.o., 15 min): 1/10
Analgesia ([2]; codeine 80 mg/kg p.o., 15 min): 5/10
Analgesia ([2]; codeine 160 mg/kg p.o., 15 min): 10/10

COc1cccc(C2(O)CCCCC2CN(C)C)c1 (stereo not drawn) [tramadol only, (1RS, 2RS) trans-2-[(dimethylamino)-methyl]-1-(3-methoxyphenyl)cyclohexanol]
ED50 at 15 min (95% Cl's), Tramadol ([2]; Table I (tramadol:codeine), p.o., 15 min): 76.8 mg/kg
ED50 at 15 min (95% Cl's), Tramadol ([2]; Table II (tramadol:oxycodone), p.o., 15 min): 76.8 mg/kg
ED50 (95% confidence interval), drug alone [2, 3]: 76.8 (59.2-99.7) mg/kg

COc1ccc2c3c1O[C@H]1C(=O)CC[C@@]4(O)[C@@H](C2)N(C)CC[C@]314 [oxycodone only]
side effects [1]: respiratory depression, constipation, tolerance and abuse liability
ED50 [2]: 4.2 mg/kg
Analgesia ([2]; oxycodone 0.5 mg/kg p.o., 15 min): 0/10
Analgesia ([2]; oxycodone 1 mg/kg p.o., 15 min): 2/20
Analgesia ([2]; oxycodone 2 mg/kg p.o., 15 min): 3/10
Analgesia ([2]; oxycodone 3 mg/kg p.o., 15 min): 2/10
Analgesia ([2]; oxycodone 6 mg/kg p.o., 15 min): 5/10
Analgesia ([2]; oxycodone 10 mg/kg p.o., 15 min): 9/10
Analgesia ([2]; oxycodone 20 mg/kg p.o., 15 min): 10/10
Analgesia ([2]; oxycodone 30 mg/kg p.o., 15 min): 10/10

COc1ccc2c3c1O[C@H]1C(=O)CC[C@H]4[C@@H](C2)N(C)CC[C@]314 [hydrocodone]
side effects [1]: respiratory depression, constipation, tolerance and abuse liability
